Results from patent US20060069132A1, “Azolecarboxamide herbicides” (priority 2004, published 2006).

Key:
soybean = test: Test C pre-/postemergence herbicide test; assay type: in vivo, Glycine max; settings: for Soybean plant response rating: Preemergence, scale 0 to 100, 0 no effect, 100 complete control
Summary of the method: (§1)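 Pre/post spray; non-phytotoxic solvent + surfactant. Post-timing 1–4 leaves, 2–18 cm. Read-out: visual % control vs untreated, day 12–14, greenhouse.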

kochia = test: Test C pre-/postemergence herbicide test; assay type: in vivo, Kochia scoparia; settings: for Plant response rating (0 = no effect, 100 = complete control), Kochia / Plant response rating, Kochia: preemergence; for Kochia plant response rating: Preemergence, scale 0 to 100, 0 no effect, 100 complete control
Summary of the method: as §1

giant foxtail = test: Test C pre-/postemergence herbicide test; assay type: in vivo, Setaria faberi; settings: for Plant response rating (0 = no effect, 100 = complete control), Foxtail, Giant / Plant response rating, Foxtail, Giant: preemergence; for Foxtail, Giant plant response rating: Preemergence, scale 0 to 100, 0 no effect, 100 complete control
Summary of the method: as §1

goosegrass = test: Test C pre-/postemergence herbicide test; assay type: in vivo, Eleusine indica; settings: for Plant response rating (0 = no effect, 100 = complete control), Goosegrass / Plant response rating, Goosegrass: preemergence; for Goosegrass plant response rating: Preemergence, scale 0 to 100, 0 no effect, 100 complete control
Summary of the method: as §1

morningglory [1] = test: Test C pre-/postemergence herbicide test; assay type: in vivo, Ipomoea coccinea; design: key to Plant response rating, Morningglory: 0 = no effect, 100 = complete control; settings: for Plant response rating (0 = no effect, 100 = complete control), Morningglory / Plant response rating, Morningglory: preemergence; for Morningglory plant response rating: Preemergence, scale 0 to 100, 0 no effect, 100 complete control
Summary of the method: as §1

[2] = test system: common (oilseed) sunflower; test: Test C pre-/postemergence herbicide test; assay type: in vivo, Helianthus annuus; settings: for Plant response rating (0 = no effect, 100 = complete control), Sunflower / Plant response rating, Sunflower: preemergence; for Sunflower plant response rating: Preemergence, scale 0 to 100, 0 no effect, 100 complete control
Summary of the method: as §1

bermudagrass = test: Test C pre-/postemergence herbicide test; assay type: in vivo, Cynodon dactylon; settings: for Plant response rating (0 = no effect, 100 = complete control), Bermudagrass / Plant response rating, Bermudagrass: preemergence; for Bermudagrass plant response rating: Preemergence, 500 g ai/ha
Summary of the method: as §1

rice = test: Test B pre-/postemergence herbicide test; assay type: in vivo, Oryza sativa; settings: preemergence
Summary of the method: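 Plants compared with untreated controls 13–15 days post-treatment and given a visual 0–100 injury score. Applications: preemergence to seeds; postemergence at 1- to 4-leaf (2–18 cm); paddy species flooded, 2-leaf stage. Vehicle non-phytotoxic, surfactant included.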

morningglory [3] = test: Test A pre-/postemergence herbicide test; assay type: in vivo, Ipomoea spp.
Summary of the method: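 Greenhouse injury scoring (0–100, complete control = 100) at approximately ten days follows simultaneous pre- and postemergence application. Soil received a directed spray after seeding; seedlings of 2–10 cm at the one- to two-leaf stage were sprayed to runoff.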

[4] = test system: smallflower umbrella sedge; test: Test C flooded paddy test; assay type: in vivo, Cyperus difformis; settings: for Plant response rating, Sedge, Umbrella: 500 g ai/ha, visual rating after 12 to 14 days
[5] = 125 g ai/ha, scale 0 (no effect) to 100 (complete control), visual, 12 to 14 days, preemergence
[6] = 125 g ai/ha, scale 0 (no effect) to 100 (complete control), visual, 12 to 14 days
[7] = 250 g ai/ha, scale 0 to 100 (0 no effect, 100 complete control), visual, 12 to 14 days
[8] = scale 0 to 100, 0 no effect, 100 complete control
[9] = 125 g ai/ha, 0 to 100 scale, 0 is no effect, 100 is complete control
[10] = 62 g ai/ha, preemergence, scale 0 to 100
[11] = 250 g ai/ha, scale 0-100, preemergence
[12] = 500 g ai/ha, scale 0 to 100 (0 no effect, 100 complete control), visual, 12 to 14 days, preemergence
[13] = 500 g ai/ha, scale 0 to 100 (0 no effect, 100 complete control), visual, 12 to 14 days
[14] = 62 g ai/ha, scale 0 to 100, 0 no effect, 100 complete control
[15] = Postemergence, 500 g ai/ha, 0 to 100 scale, 0 no effect, 100 complete control
[16] = Postemergence, 2000 g ai/ha, 0 to 100 scale, 0 no effect, 100 complete control
[17] = Preemergence, 2000 g ai/ha, visual rating, 0 to 100 scale (0 no effect, 100 complete control)
[18] = 125 g ai/ha, 0 = no effect, 100 = complete control
[19] = 500 g ai/ha, visual rating, 0 = no effect, 100 = complete control
[20] = 125 g ai/ha, scale 0 to 100 (0 no effect, 100 complete control)
[21] = 250 g ai/ha, scale of 0 to 100, 0 is no effect, 100 is complete control
[22] = scale 0 to 100 (0 no effect, 100 complete control)

CCCn1nc(C(C)(C)C)cc1C(=O)Nc1cccc(C(=O)NCC)c1 [Compound 57]
Plant response rating (0 = no effect, 100 = complete control), Soybean (soybean; 62 g ai/ha, preemergence): 0
Plant response rating, Soybean (soybean; [5]): 0
Plant response rating, Soybean (soybean; 250 g ai/ha, scale 0 to 100 (0 no effect, 100 complete control), visual, 12 to 14 days, preemergence): 0
Soybean plant response rating (soybean; 500 g ai/ha): 60
Plant response rating (0 = no effect, 100 = complete control), Kochia (kochia; 62 g ai/ha): 100
Plant response rating, Kochia (kochia; [6]): 100
Plant response rating, Kochia (kochia; [7]): 100
Kochia plant response rating (kochia; 500 g ai/ha): 100
Plant response rating (0 = no effect, 100 = complete control), Foxtail, Giant (giant foxtail; 62 g ai/ha): 20
Plant response rating, Foxtail, Giant (giant foxtail; [6]): 95
Plant response rating, Foxtail, Giant (giant foxtail; [7]): 100
Foxtail, Giant plant response rating (giant foxtail; 500 g ai/ha): 100
Plant response rating (0 = no effect, 100 = complete control), Goosegrass (goosegrass; 62 g ai/ha): 45
Plant response rating, Goosegrass (goosegrass; [6]): 75
Plant response rating, Goosegrass (goosegrass; [7]): 90
Goosegrass plant response rating (goosegrass; 500 g ai/ha): 90
Plant response rating (0 = no effect, 100 = complete control), Morningglory (morningglory [1]; 62 g ai/ha): 0
Plant response rating, Morningglory (morningglory [1]; [6]): 0
Plant response rating, Morningglory (morningglory [1]; [7]): 25
Morningglory plant response rating (morningglory [1]; 500 g ai/ha): 25
Plant response rating (0 = no effect, 100 = complete control), Sunflower ([2]; 62 g ai/ha): 0
Plant response rating, Sunflower [2, 6]: 0
Plant response rating, Sunflower [2, 7]: 0
Sunflower plant response rating ([2]; 500 g ai/ha): 0
Plant response rating (0 = no effect, 100 = complete control), Bermudagrass (bermudagrass; 62 g ai/ha): 55
Plant response rating, Bermudagrass (bermudagrass; [6]): 95
Plant response rating, Bermudagrass (bermudagrass; [7]): 95
Bermudagrass plant response rating (bermudagrass; [8]): 100
Plant response rating, Rice (rice; [9]): 30

CCn1nc(C(C)(C)C)cc1C(=O)Nc1cncc(C(=O)N(C)C)n1 [Compound 287]
Plant response rating, Soybean (soybean; [10]): 0
Plant response rating, Soybean (soybean; [11]): 85
Plant response rating, Soybean (soybean; [12]): 95
Plant response rating, Kochia (kochia; 62 g ai/ha, scale 0 to 100): 85
Plant response rating, Kochia (kochia; [6]): 100
Plant response rating, Kochia (kochia; 250 g ai/ha, scale 0-100): 100
Plant response rating, Kochia (kochia; [13]): 100
Plant response rating, Foxtail, Giant (giant foxtail; 62 g ai/ha, scale 0 to 100): 0
Plant response rating, Foxtail, Giant (giant foxtail; [6]): 70
Plant response rating, Foxtail, Giant (giant foxtail; 250 g ai/ha, scale 0-100): 85
Plant response rating, Foxtail, Giant (giant foxtail; [13]): 100
Plant response rating, Goosegrass (goosegrass; 62 g ai/ha, scale 0 to 100): 70
Plant response rating, Goosegrass (goosegrass; [6]): 100
Plant response rating, Goosegrass (goosegrass; 250 g ai/ha, scale 0-100): 100
Plant response rating, Goosegrass (goosegrass; [13]): 100
Plant response rating, Sunflower ([2]; 62 g ai/ha, scale 0 to 100): 90
Plant response rating, Sunflower ([2]; 250 g ai/ha, scale 0-100): 100
Plant response rating, Sunflower [2, 13]: 100
Plant response rating, Bermudagrass (bermudagrass; [14]): 85
Plant response rating, Bermudagrass (bermudagrass; [6]): 95
Plant response rating, Bermudagrass (bermudagrass; 250 g ai/ha, scale 0-100): 95
Bermudagrass plant response rating (bermudagrass; [8]): 95
Morningglory plant response rating (morningglory [3]; [15]): 20
Plant response rating, Morningglory (morningglory [3]; [16]): 15
Morningglory plant response rating (morningglory [3]; [17]): 50
Morningglory plant response rating (morningglory [3]; preemergence, 500 g ai/ha, visual injury, 0 to 100 scale (0 no effect, 100 complete control)): 10
Rice plant response rating (0 to 100 scale) (rice; [18]): 80
Plant response rating, Rice (rice; [19]): 90
Sedge, Umbrella plant response rating ([4]; 62 g ai/ha, scale 0 to 100): 0
Sedge, Umbrella plant response rating [4, 20]: 35
Sedge, Umbrella plant response rating [4, 21]: 70
Plant response rating, Sedge, Umbrella [4, 22]: 75

CCN(CC)C(=O)c1cccc(NC(=O)c2cc(C(C)(C)C)nn2CC)n1 [Compound 145]
Plant response rating, Soybean (soybean; [5]): 10
Soybean plant response rating (soybean; 500 g ai/ha): 60
Plant response rating (0 = no effect, 100 = complete control), Kochia (kochia; 62 g ai/ha): 20
Plant response rating, Kochia (kochia; [6]): 60
Kochia plant response rating (kochia; 500 g ai/ha): 80
Plant response rating (0 = no effect, 100 = complete control), Foxtail, Giant (giant foxtail; 62 g ai/ha): 0
Plant response rating, Foxtail, Giant (giant foxtail; [6]): 0
Plant response rating, Foxtail, Giant (giant foxtail; [7]): 50
Foxtail, Giant plant response rating (giant foxtail; 500 g ai/ha): 70
Plant response rating (0 = no effect, 100 = complete control), Goosegrass (goosegrass; 62 g ai/ha): 50
Plant response rating, Goosegrass (goosegrass; [6]): 70
Goosegrass plant response rating (goosegrass; 500 g ai/ha): 80
Plant response rating (0 = no effect, 100 = complete control), Morningglory (morningglory [1]; 62 g ai/ha): 0
Plant response rating, Morningglory (morningglory [1]; [6]): 0
Morningglory plant response rating (morningglory [1]; 500 g ai/ha): 30
Plant response rating (0 = no effect, 100 = complete control), Sunflower ([2]; 62 g ai/ha): 0
Plant response rating, Sunflower [2, 6]: 0
Sunflower plant response rating ([2]; 500 g ai/ha): 30
Plant response rating (0 = no effect, 100 = complete control), Bermudagrass (bermudagrass; 62 g ai/ha): 20
Plant response rating, Bermudagrass (bermudagrass; [6]): 60
Plant response rating, Bermudagrass (bermudagrass; [7]): 80
Bermudagrass plant response rating (bermudagrass; [8]): 90
Morningglory plant response rating (morningglory [3]; [15]): 15
Plant response rating, Morningglory (morningglory [3]; [16]): 30
Morningglory plant response rating (morningglory [3]; Preemergence, 500 g ai/ha, visual rating, 0 to 100 scale (0 no effect, 100 complete control)): 20
Morningglory plant response rating (morningglory [3]; [17]): 25
Plant response rating, Rice (rice; 500 g ai/ha, visual rating 0-100, 0 no effect, 100 complete control): 20
Plant response rating, Rice (rice; [9]): 0

CCn1nc(C(C)(C)C)cc1C(=O)Nc1cc(C(=O)N2CCCC2)ccc1F [Compound 242]
Plant response rating, Soybean (soybean; [10]): 0
Plant response rating, Soybean (soybean; [11]): 65
Plant response rating, Soybean (soybean; [12]): 75
Plant response rating, Foxtail, Giant (giant foxtail; 62 g ai/ha, scale 0 to 100): 85
Plant response rating, Foxtail, Giant (giant foxtail; [6]): 100
Plant response rating, Foxtail, Giant (giant foxtail; 250 g ai/ha, scale 0-100): 100
Plant response rating, Foxtail, Giant (giant foxtail; [13]): 100
Plant response rating, Goosegrass (goosegrass; 62 g ai/ha, scale 0 to 100): 100
Plant response rating, Goosegrass (goosegrass; [6]): 100
Plant response rating, Goosegrass (goosegrass; 250 g ai/ha, scale 0-100): 100
Plant response rating, Goosegrass (goosegrass; [13]): 100
Plant response rating, Morningglory (morningglory [1]; 62 g ai/ha, scale 0 to 100): 0
Plant response rating, Morningglory (morningglory [1]; [6]): 0
Plant response rating, Morningglory (morningglory [1]; 250 g ai/ha, scale 0-100): 0
Plant response rating, Morningglory (morningglory [1]; [13]): 15
Plant response rating, Sunflower ([2]; 62 g ai/ha, scale 0 to 100): 0
Plant response rating, Sunflower ([2]; 250 g ai/ha, scale 0-100): 50
Plant response rating, Sunflower [2, 13]: 95
Plant response rating, Bermudagrass (bermudagrass; [14]): 95
Plant response rating, Bermudagrass (bermudagrass; [6]): 100
Plant response rating, Bermudagrass (bermudagrass; 250 g ai/ha, scale 0-100): 100
Bermudagrass plant response rating (bermudagrass; [8]): 100
Rice plant response rating (0 to 100 scale) (rice; [18]): 50
Plant response rating, Rice (rice; [19]): 80
Sedge, Umbrella plant response rating ([4]; 62 g ai/ha, scale 0 to 100 (0 no effect, 100 complete control)): 45
Sedge, Umbrella plant response rating [4, 20]: 75
Sedge, Umbrella plant response rating [4, 21]: 85
Plant response rating, Sedge, Umbrella [4, 22]: 85
